Source: the supplement of paper PMC11061612

Columns and labels:
Assay in all cases: combination Emax (second highest fraction inhibited in the dose matrix, 72 h); higher = more inhibition; extreme values may be limits of the assay
[1] = system: A4-Fuk (B-Lymphoblastic Leukemia)
Outline: (§1)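 After 24 hours at 37°C and 5% CO2 in 1536-well plates, cells in DMEM/F12 or RPMI plus 10% FBS received two-drug dose matrices for 72 hours. Viability came from CellTiter-Glo 2.0 luminescence and was scaled as inhibition, anchored at 0 by vehicle wells and at 1 by blank wells. Combination Emax is taken as the second-highest inhibition in the matrix, and Bliss excess as the observed combination effect less EA + EB − EA·EB, with EA and EB the single-agent effects.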

[2] = system: CADO-ES1 (Ewing's Sarcoma)
Outline: as §1

[3] = system: COLO-668 (Small Cell Lung Carcinoma)
Outline: as §1

[4] = system: COLO-679 (Melanoma)
Outline: as §1

[5] = system: Ca-Ski (Cervical Carcinoma)
Outline: as §1

[6] = system: DU-145 (Prostate Carcinoma)
Outline: as §1

[7] = system: KGN (Other Solid Carcinomas)
Outline: as §1

[8] = system: KMRC-1 (Kidney Carcinoma)
Outline: as §1

[9] = system: KOPN-8 (B-Lymphoblastic Leukemia)
Outline: as §1

[10] = system: MDA-MB-453 (Breast Carcinoma)
Outline: as §1

[11] = system: MOLT-4 (T-Lymphoblastic Leukemia)
Outline: as §1

[12] = system: Mo-T (Other Blood Carcinomas)
Outline: as §1

[13] = system: NCI-H1355 (Lung Adenocarcinoma)
Outline: as §1

[14] = system: NCI-H1838 (Lung Adenocarcinoma)
Outline: as §1

[15] = system: NCI-H522 (Lung Adenocarcinoma)
Outline: as §1

[16] = system: NCI-H650 (Lung Adenocarcinoma)
Outline: as §1

[17] = system: OACM5-1 (Esophageal Adenocarcinoma)
Outline: as §1

[18] = system: SK-LU-1 (Lung Adenocarcinoma)
Outline: as §1

[19] = system: SKN (Other Solid Carcinomas)
Outline: as §1

[20] = system: SNU-387 (Hepatocellular Carcinoma)
Outline: as §1

SMILES	combination Emax [1]	combination Emax [2]	combination Emax [3]	combination Emax [4]	combination Emax [5]	combination Emax [6]	combination Emax [7]	combination Emax [8]	combination Emax [9]	combination Emax [10]	combination Emax [11]	combination Emax [12]	combination Emax [13]	combination Emax [14]	combination Emax [15]	combination Emax [16]	combination Emax [17]	combination Emax [18]	combination Emax [19]	combination Emax [20]
CN(C)CCCOc1ccc(-c2ccc3ncc4c(c3c2)n(C2CCOCC2)c(=O)n4C)cn1 [AZD0156] + C=CCn1c(=O)c2cnc(Nc3ccc(N4CCN(C)CC4)cc3)nc2n1-c1cccc(C(C)(C)O)n1 [AZD1775] (first compound max 1 µM, partner max 1 µM)	0.816	0.39	0.405	0.552	0.7	0.239	0.806	0.259	0.85	0.192	1	0.402	0.532	0.465	0.225	0.263	0.414	0.384	0.336	0.464
CN(C)CCCOc1ccc(-c2ccc3ncc4c(c3c2)n(C2CCOCC2)c(=O)n4C)cn1 [AZD0156] + CCN(CCO)CCCOc1ccc2c(Nc3cc(CC(=O)Nc4cccc(F)c4)[nH]n3)ncnc2c1 [AZD2811] (first compound max 1 µM, 7x7, partner max 1 µM)	0.551	0.323	0.0922	0.159	0.274	0.134	0.551	0.13	0.554	0.144	0.968	0.137	0.216	0.263	0.0622	0.124	0.232	0.143	0.042	0.207
CN(C)CCCOc1ccc(-c2ccc3ncc4c(c3c2)n(C2CCOCC2)c(=O)n4C)cn1 [AZD0156] + C[C@@H]1COCCN1C2=NC(=NC(=C2)C3(CC3)[S@](=N)(=O)C)C4=C5C=CNC5=NC=C4 [AZD6738] (first compound max 1 µM, 7x7, partner max 10 µM)	0.734	0.903	0.612	0.749	0.668	0.544	0.848	0.575	0.927	0.831	0.97	0.481	0.69	0.745	0.0837	0.226	0.57	0.474	0.344	0.553
CN(C)CCCOc1ccc(-c2ccc3ncc4c(c3c2)n(C2CCOCC2)c(=O)n4C)cn1 [AZD0156] + O=C(c1cc(Cc2n[nH]c(=O)c3ccccc23)ccc1F)N1CCN(C(=O)C2CC2)CC1 [Olaparib] (first compound max 3 µM, partner max 3 µM)	0.553	0.739	0.179	0.225	0.304	0.0116	0.62	0.151	0.78	0.286	0.636	0.402	0.305	0.21	0.258	0.149	0.327	0.334	0.188	0.405
C=CCn1c(=O)c2cnc(Nc3ccc(N4CCN(C)CC4)cc3)nc2n1-c1cccc(C(C)(C)O)n1 [AZD1775] + C1CN(CCC1(C(=O)N[C@@H](CCO)C2=CC=C(C=C2)Cl)N)C3=NC=NC4=C3C=CN4 [Capivasertib] (first compound max 3 µM, partner max 3 µM)	0.859	0.621	0.545	0.412	0.825	0.449	0.734	0.593	0.968	0.859	0.989	0.894	0.646	0.501	0.612	0.786	0.74	0.634	0.576	0.687
C=CCn1c(=O)c2cnc(Nc3ccc(N4CCN(C)CC4)cc3)nc2n1-c1cccc(C(C)(C)O)n1 [AZD1775] + C[C@@H]1COCCN1C2=NC(=NC(=C2)C3(CC3)[S@](=N)(=O)C)C4=C5C=CNC5=NC=C4 [AZD6738] (first compound max 1 µM, partner max 10 µM)	0.875	0.901	0.893	0.723	0.869	0.604	0.922	0.669	0.965	0.891	1	0.61	0.777	0.733	0.487	0.329	0.778	0.488	0.506	0.7
C=CCn1c(=O)c2cnc(Nc3ccc(N4CCN(C)CC4)cc3)nc2n1-c1cccc(C(C)(C)O)n1 [AZD1775] + O=C(c1cc(Cc2n[nH]c(=O)c3ccccc23)ccc1F)N1CCN(C(=O)C2CC2)CC1 [Olaparib] (first compound max 1 µM, partner max 10 µM)	0.875	0.636	0.566	0.491	0.797	0.255	0.745	0.279	0.904	0.411	1	0.456	0.614	0.477	0.363	0.316	0.353	0.436	0.412	0.567
CCN(CCO)CCCOc1ccc2c(Nc3cc(CC(=O)Nc4cccc(F)c4)[nH]n3)ncnc2c1 [AZD2811] + C=CCn1c(=O)c2cnc(Nc3ccc(N4CCN(C)CC4)cc3)nc2n1-c1cccc(C(C)(C)O)n1 [AZD1775] (first compound max 1 µM, partner max 1 µM)	0.852	0.454	0.42	0.491	0.697	0.251	0.767	0.184	0.882	0.301	1	0.311	0.568	0.483	0.218	0.301	0.339	0.416	0.236	0.575
CCN(CCO)CCCOc1ccc2c(Nc3cc(CC(=O)Nc4cccc(F)c4)[nH]n3)ncnc2c1 [AZD2811] + C[C@@H]1COCCN1C2=NC(=NC(=C2)C3(CC3)[S@](=N)(=O)C)C4=C5C=CNC5=NC=C4 [AZD6738] (first compound max 1 µM, 7x7, partner max 10 µM)	0.747	0.843	0.644	0.679	0.607	0.596	0.822	0.566	0.855	0.807	1	0.556	0.679	0.643	0.142	0.117	0.44	0.473	0.393	0.494
CCN(CCO)CCCOc1ccc2c(Nc3cc(CC(=O)Nc4cccc(F)c4)[nH]n3)ncnc2c1 [AZD2811] + O=C(c1cc(Cc2n[nH]c(=O)c3ccccc23)ccc1F)N1CCN(C(=O)C2CC2)CC1 [Olaparib] (first compound max 1 µM, 7x7, partner max 10 µM)	0.437	0.531	0.178	0.281	0.289	0.199	0.629	0.19	0.709	0.112	0.974	0.369	0.318	0.275	0.221	0.164	0.247	0.229	0.127	0.17
CN(CCO)CC[C@H](CSc1ccccc1)Nc1ccc(S(=O)(=O)NC(=O)c2ccc(N3CCC([C@@H](O)c4ccccc4-c4ccc(Cl)cc4)CC3)cc2)cc1S(=O)(=O)C(F)(F)F [AZD4320] + CN(C)CCCOc1ccc(-c2ccc3ncc4c(c3c2)n(C2CCOCC2)c(=O)n4C)cn1 [AZD0156] (first compound max 1 µM, 7x7, partner max 1 µM)	0.476	0.611		0.162	0.268	0.0779	0.425	0.2	0.898	0.175	0.976	0.483	0.162	0.225	0.0875	0.203	0.433	0.322	0.127	0.183
COc1nnc2ccc(N3CCC(c4ccc(OCCN5CCN(C)C(=O)[C@H]5C)cc4)CC3)nn12 [AZD5153] + C=CCn1c(=O)c2cnc(Nc3ccc(N4CCN(C)CC4)cc3)nc2n1-c1cccc(C(C)(C)O)n1 [AZD1775] (first compound max 1 µM, partner max 1 µM)	0.967	0.387	0.665	0.505	0.791	0.316	0.781	0.358	1	0.731	1	0.729	0.57	0.441	0.51	0.487	0.869	0.442	0.687	0.469
COc1nnc2ccc(N3CCC(c4ccc(OCCN5CCN(C)C(=O)[C@H]5C)cc4)CC3)nn12 [AZD5153] + CC1(C)CCC(CN2CCN(c3ccc(C(=O)NS(=O)(=O)c4ccc(NCC5CCOCC5)c([N+](=O)[O-])c4)c(Oc4cnc5[nH]ccc5c4)c3)CC2)=C(c2ccc(Cl)cc2)C1 [Venetoclax] (first compound max 1 µM, 7x7, partner max 1 µM)	0.871	0.665	0.811	0.442	0.616	0.288	0.729	0.263	1	0.649	0.425	0.611	0.327	0.35	0.415	0.381	0.607	0.358	0.594	0.434
